Common to all, as to type: cell-based
For one experiment, the target named is T1, human M1 receptor (Homo sapiens, UniProt P11229).
T1 sequence (P11229 1-460): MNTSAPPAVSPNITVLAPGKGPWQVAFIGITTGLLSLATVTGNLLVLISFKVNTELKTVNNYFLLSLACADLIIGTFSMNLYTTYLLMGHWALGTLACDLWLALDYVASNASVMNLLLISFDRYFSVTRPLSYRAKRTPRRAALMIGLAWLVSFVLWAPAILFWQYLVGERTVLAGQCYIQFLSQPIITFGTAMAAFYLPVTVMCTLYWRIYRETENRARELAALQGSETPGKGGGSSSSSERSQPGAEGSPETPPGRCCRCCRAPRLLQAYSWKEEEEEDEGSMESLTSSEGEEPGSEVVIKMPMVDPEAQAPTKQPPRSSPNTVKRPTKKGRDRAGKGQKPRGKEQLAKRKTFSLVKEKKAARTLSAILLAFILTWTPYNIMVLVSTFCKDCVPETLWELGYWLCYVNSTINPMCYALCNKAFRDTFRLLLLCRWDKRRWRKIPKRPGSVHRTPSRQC
The experiment is described as follows: In vitro functional assay of muscarinic acetylcholine receptor activity (aequorin calcium flux, antagonist mode vs EC80 acetylcholine), M1. The protocol: (§1) CHO-K1 cells stably expressing human M1 receptor with Aequorin (Perkin Elmer) were grown in F12 media, 10% FBS with 0.4 mg/mL geneticin and […]. Cells were grown to confluence and frozen down to be assayed at a later date. On the day of the experiment cells were thawed in a 37° C. water bath, resuspended in DMEM/HAM's F12 with HEPES (Invitrogen)+0.1% protease-free BSA (assay buffer), and spun down to remove freezing media. After centrifugation, supernatant was removed and 12 mL of assay buffer was added. Coelenterazine h (Promega) was added to the cells at a final concentration of 5 uM and incubated for 4 hours at room temperature in the dark. Compound master plate-96 deep well (Corning) were formatted in a 8-point DRC in assay buffer with 0.2% DMSO at a starting concentration of 60 uM (2×). After 4 hours of incubation, cells were plated at a concentration of 5×10^5 cells/well in 96 well white-walled, tissue culture-treated, clear-bottom plates (VWR). Compounds were added to the daughter plate, and cells plus compound were incubated at room temperature for 30 minutes in the dark.
(§2) Calcium flux was measured using the FlexStation 3 (Molecular Devices). To measure the antagonist dose-response, the EC80 of Acetylcholine was injected to the daughter plate using the automated compound transfer function of the Flex Station, and the increase in luminescence was measured over time. Antagonist activity was analyzed as a concentration dependent decrease in the EC80 acetylcholine response. Dose response curves were generated using Prism (GraphPad Software). The IC50 of the compounds was calculated from the dose response curve.
For orientation: A change in cytosolic calcium serves as a functional read-out for many receptors and channels.

In another experiment the target is T2, M2 (Homo sapiens, UniProt P08172).
T2 sequence (P08172 1-466): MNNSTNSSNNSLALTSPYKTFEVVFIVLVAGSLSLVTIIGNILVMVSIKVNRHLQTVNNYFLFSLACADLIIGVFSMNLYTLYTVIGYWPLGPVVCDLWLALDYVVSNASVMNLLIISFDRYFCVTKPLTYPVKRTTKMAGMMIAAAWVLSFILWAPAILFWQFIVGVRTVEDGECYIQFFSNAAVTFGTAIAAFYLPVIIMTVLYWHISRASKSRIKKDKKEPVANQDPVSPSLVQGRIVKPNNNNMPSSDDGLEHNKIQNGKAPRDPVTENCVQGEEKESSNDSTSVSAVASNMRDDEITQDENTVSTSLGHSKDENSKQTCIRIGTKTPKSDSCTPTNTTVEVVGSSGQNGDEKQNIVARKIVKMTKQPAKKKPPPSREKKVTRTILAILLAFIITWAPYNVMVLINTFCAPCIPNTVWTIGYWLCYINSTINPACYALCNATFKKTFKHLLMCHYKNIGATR
The experiment is described as follows: In vitro functional assay of muscarinic acetylcholine receptor activity, M2. On the procedure: [The procedure below names another target; the source lists this target under the same test.] as §1, §2

The next experiment addresses M3 (Homo sapiens, UniProt P20309). Put plainly: In vitro functional assay of muscarinic acetylcholine receptor activity, M3. As to conditions: antagonist IC50 at M3; read-out: M3 IC50. On the procedure: [The procedure below names another target; the source lists this target under the same test.] as §1, §2
The mark [1] stands for this setting: CHO-K1 cells stably expressing human M1 receptor with Aequorin, decrease in EC80 acetylcholine response, read-out: M1 IC50.
[2] abbreviates: antagonist IC50 at M2, read-out: M2 IC50.

The values that follow come from patent publication US11512090B2, “Muscarinic acetylcholine M1 receptor antagonists” (PIPELINE THERAPEUTICS, INC., priority 2018, dated 2022).

Each structure is given as a SMILES string. Read-outs that look alike come from different tables or passages of the source.

Chain of M3 (P20309 whole entry): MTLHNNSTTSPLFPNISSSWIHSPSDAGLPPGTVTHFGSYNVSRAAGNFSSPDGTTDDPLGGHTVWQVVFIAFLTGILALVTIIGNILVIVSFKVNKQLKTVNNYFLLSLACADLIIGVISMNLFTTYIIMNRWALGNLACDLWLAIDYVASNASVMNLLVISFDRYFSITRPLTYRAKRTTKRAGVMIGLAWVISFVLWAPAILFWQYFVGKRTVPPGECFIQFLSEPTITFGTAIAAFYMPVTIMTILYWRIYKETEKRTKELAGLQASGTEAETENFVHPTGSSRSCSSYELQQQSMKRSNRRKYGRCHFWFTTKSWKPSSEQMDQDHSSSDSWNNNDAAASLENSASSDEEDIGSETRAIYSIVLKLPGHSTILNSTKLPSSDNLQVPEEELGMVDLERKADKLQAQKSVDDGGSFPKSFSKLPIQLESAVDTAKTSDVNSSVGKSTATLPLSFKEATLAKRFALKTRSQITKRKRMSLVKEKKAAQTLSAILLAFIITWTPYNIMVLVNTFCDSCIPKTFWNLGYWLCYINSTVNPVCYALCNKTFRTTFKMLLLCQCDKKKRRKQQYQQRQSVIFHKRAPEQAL

For the compound `C[C@@H]1CN(c2ccc(F)c(C#N)c2)CCN1C(=O)CCCc1cccc2ncccc12` [Example 23, (R)-2-fluoro-5-(3-methyl-4-(4-(quinolin-5-yl)butanoyl)piperazin-1-yl)benzonitrile], the IC50 is below 100 nM on human M1 receptor (setting [1]), 1000 to 10000 nM on M2 (setting [2]) and 1000 to 10000 nM at M3.

`N#Cc1ccc(N2C3CCC2CN(C(=O)CCS(=O)(=O)c2cccc4ncsc24)C3)nc1` [Example 24, 6-{3-[3-(1,3-benzothiazole-7-sulfonyl)propanoyl]-3,8-diazabicyclo[3.2.1]octan-8-yl}pyridine-3-carbonitrile]: the figures for the IC50 on human M1 receptor, at M2 (setting [2]) and at M3 were below 100 nM, 100 to 1000 nM and 100 to 1000 nM, respectively.

In the case of `Cc1cc(C#N)ncc1N1CCN(C(=O)CCS(=O)(=O)c2cccc3ncsc23)[C@@H](C)C1` [Example 25, 5-[(3S)-4-[3-(1,3-benzothiazole-7-sulfonyl)propanoyl]-3-methylpiperazin-1-yl]-4-methylpyridine-2-carbonitrile], the IC50 on human M1 receptor (setting [1]) is below 100 nM; on M2 (setting [2]) it was 100 to 1000 nM; on M3, above 10000 nM.

Consider `C[C@H]1CN(c2c[nH]c(=O)cc2Cl)CCN1C(=O)CCS(=O)(=O)c1cccc2ncsc12` [Example 26, 5-[(3S)-4-[3-(1,3-benzothiazole-7-sulfonyl)propanoyl]-3-methylpiperazin-1-yl]-4-chloro-1,2-dihydropyridin-2-one], for which the IC50 at human M1 receptor (setting [1]) is 100 to 1000 nM; at M2 (setting [2]) it was above 10000 nM; at M3 it was above 10000 nM.

Consider `N#Cc1ccc(C2=CC3CCC2CN3C(=O)CCS(=O)(=O)c2cccc3ncsc23)nc1` (stereo not drawn) [Example 27, 6-{2-[3-(1,3-benzothiazole-7-sulfonyl)propanoyl]-2-azabicyclo[2.2.2]oct-5-en-5-yl}pyridine-3-carbonitrile], for which the IC50 is below 100 nM at human M1 receptor (setting [1]), 100 to 1000 nM on M2 (setting [2]) and 1000 to 10000 nM at M3.

`N#Cc1ccc(C2CC3CCC2CN3C(=O)CCS(=O)(=O)c2cccc3ncsc23)nc1` (stereo not drawn) [Example 28, 6-[2-[3-(1,3-benzothiazole-7-sulfonyl)propanoyl]-2-azabicyclo[2.2.2]octan-5-yl]pyridine-3-carbonitrile]: the concentration for half-maximal inhibition (IC50) on human M1 receptor (setting [1]) is below 100 nM; at M2 (setting [2]), 100 to 1000 nM; at M3, 1000 to 10000 nM.

As for `N#Cc1ccc(N2C3CCC2CN(C(=O)CCNCc2cccc4ncsc24)C3)nc1` [Example 29, 6-[3-(3-{[(1,3-benzothiazol-7-yl)methyl]amino}propanoyl)-3,8-diaza-bicyclo[3.2.1]octan-8-yl]pyridine-3-carbonitrile], the IC50 on human M1 receptor is below 100 nM; at M2 (setting [2]), 1000 to 10000 nM; on M3 it was 1000 to 10000 nM.

With `N#Cc1ccc(N2C3CCC2CN(C(=O)C2CC(NCc4cccc5ncsc45)C2)C3)nc1` (stereo not drawn) [Example 30, 6-[3-(3-{[(1,3-benzothiazol-7-yl)methyl]amino}cyclobutanecarbonyl)-3,8-diazabicyclo[3.2.1]octan-8-yl]pyridine-3-carbonitrile], the results for the IC50 at human M1 receptor, on M2 (setting [2]) and on M3 were 100 to 1000 nM, 1000 to 10000 nM and above 10000 nM, respectively.

Consider `N#Cc1ccc(N2C3CCC2CN(C(=O)C2CC(Cc4cccc5ncsc45)C2)C3)nc1` (stereo not drawn) [Example 31, 6-(3-{3-[(1,3-benzothiazol-7-yl)methyl]cyclobutanecarbonyl}-3,8-diazabicyclo[3.2.1]octan-8-yl)pyridine-3-carbonitrile], for which the IC50 at human M1 receptor was below 100 nM; on M2 (setting [2]) it was 1000 to 10000 nM; on M3, 1000 to 10000 nM.

Consider `O=C(CCS(=O)(=O)c1cccc2ncsc12)N1CCC2(c3ccc(C(F)(F)F)cn3)CC2C1` (stereo not drawn) [Example 32, 3-(1,3-benzothiazole-7-sulfonyl)-1-{6-[5-(trifluoromethyl)pyridin-2-yl]-3-azabicyclo[4.1.0]heptan-3-yl}propan-1-one], for which the IC50 at human M1 receptor (setting [1]) lay within 100 to 1000 nM; at M2 (setting [2]), 1000 to 10000 nM; on M3, 1000 to 10000 nM.

Consider `N#Cc1ccc(N2C3CCC2CN(C(=O)CCNCc2cccc4ncnn24)C3)nc1` [Example 33, 6-(3-{3-[({[1,2,4]triazolo[1,5-a]pyridin-5-yl}methyl)amino]propanoyl}-3,8-diazabicyclo[3.2.1]octan-8-yl)pyridine-3-carbonitrile], for which the values for the IC50 on human M1 receptor, on M2 (setting [2]) and at M3 were below 100 nM, 1000 to 10000 nM and above 10000 nM, respectively.

In the case of `N#Cc1ccc(N2C3CCC2CN(C(=O)CCNCc2c(F)ccc4nccn24)C3)nc1` [Example 34, 6-(3-{3-[({6-fluoroimidazo[1,2-a]pyridin-5-yl}methyl)amino]propanoyl}-3,8-diazabicyclo[3.2.1]octan-8-yl)pyridine-3-carbonitrile], the IC50 was below 100 nM on human M1 receptor, 1000 to 10000 nM on M2 (setting [2]) and 1000 to 10000 nM at M3.

Consider `N#Cc1ccc(N2C3CCC2CN(C(=O)CCN(Cc2cccc4ncsc24)C2CC2)C3)nc1` [Example 35, 6-[3-(3-{[(1,3-benzothiazol-7-yl)methyl](cyclopropyl)amino}propanoyl)-3,8-diazabicyclo[3.2.1]octan-8-yl]pyridine-3-carbonitrile], for which the figures for the IC50 on human M1 receptor, at M2 (setting [2]) and at M3 were below 100 nM, 100 to 1000 nM and 100 to 1000 nM, respectively.

As for `[2H]C([2H])(NCCC(=O)N1CC2CCC(C1)N2c1ccc(C#N)cn1)c1cccc2ncsc12` [Example 36, 6-[3-(3-[(benzo[d]thiazol-7-ylmethyl-d2)amino]propanoyl)-3,8-diazabicyclo[3.2.1]octan-8-yl]pyridine-3-carbonitrile], the values for the IC50 at human M1 receptor, on M2 (setting [2]) and at M3 were below 100 nM, 1000 to 10000 nM and 1000 to 10000 nM, respectively.

With `N#Cc1ccc(N2C3CCC2CN(C(=O)CCOCc2cccc4nccnc24)C3)nc1` [Example 37, 6-(3-{3-[(quinoxalin-5-yl)methoxy]propanoyl}-3,8-diazabicyclo[3.2.1]octan-8-yl)pyridine-3-carbonitrile], the 50% inhibitory concentration (IC50) at human M1 receptor was below 100 nM; on M2 (setting [2]) it was 1000 to 10000 nM; at M3 it was above 10000 nM.

With `N#Cc1ccc(N2[C@@H]3CC[C@H]2CN(C(=O)COCc2cccc4nccnc24)C3)nc1` [Example 38, 6-((1R, 5S)-3-(2-(quinoxalin-5-ylmethoxy)acetyl)-3,8-diazabicyclo[3.2.1]octan-8-yl)nicotinonitrile], the values for the IC50 at human M1 receptor, at M2 (setting [2]) and at M3 were below 100 nM, 100 to 1000 nM and 1000 to 10000 nM, respectively.

Take `N#Cc1ccc(N2C3CCC2CN(C(=O)CCOCc2cccc4ncnn24)C3)nc1` [Example 39, 6-{3-[3-({[1,2,4]triazolo[1,5-a]pyridin-5-yl}methoxy)propanoyl]-3,8-diazabicyclo[3.2.1]octan-8-yl}pyridine-3-carbonitrile]: the IC50 is below 100 nM at human M1 receptor, 1000 to 10000 nM at M2 (setting [2]) and 1000 to 10000 nM on M3.

On to `N#Cc1ccc(N2[C@@H]3CC[C@H]2CN(C(=O)CCOCc2cccc4ncccc24)C3)nc1` [Example 40, 6-((1R, 5S)-3-(3-(quinolin-5-ylmethoxy)propanoyl)-3,8-diazabicyclo[3.2.1]octan-8-yl)nicotinonitrile], for which the IC50 at human M1 receptor is below 100 nM; against M2, 100 to 1000 nM; on M3, above 10000 nM.

Consider `N#Cc1ccc(N2C3CCC2CN(C(=O)CCOCc2cccn4ncnc24)C3)nc1` [Example 42, 6-{3-[3-({[1,2,4]triazolo[1,5-a]pyridin-8-yl}methoxy)propanoyl]-3,8-diazabicyclo[3.2.1]octan-8-yl}pyridine-3-carbonitrile], for which the IC50 on human M1 receptor is below 100 nM; at M2 (setting [2]), 1000 to 10000 nM; at M3, 1000 to 10000 nM.

What is called IC50 is the concentration at which inhibition is half-maximal.
